Where a name gives a salt, the structure may show the parent alone. Values belong to the molecule of their own block, whether it stands above or below them.
How the values were obtained:
[1] = test system: functional blepharoptosis; assay: Randomized, double-blinded, controlled study of blepharoptosis treatment with naphazoline 0.1% ophthalmic solution; assay type: in vivo, human
Procedure: To evaluate the effects of an ophthalmic solution containing an α adrenergic agonist on blepharoptosis, a randomized, double-blinded, controlled study was conducted using naphazoline 0.1%. Participants with either unilateral or bilateral upper eyelid blepharoptosis were randomized to receive either control eye drops (control group) or an ophthalmic solution containing active ingredient naphazoline 0.1% (treatment group).
The composition of the treatment group included naphazoline hydrochloride (concentration 0.1% w/v), sodium chloride, boric acid, calcium chloride, magnesium chloride, potassium chloride, sodium borate, PURITE®, methylcellulose, and purified water. The ophthalmic drops of the control group were composed of all of the preceding compounds except for naphazoline hydrochloride.
Baseline external photographs of all participants were obtained before eye drop administration. Visual field and contrast sensitivity testing were also tested at baseline. Visual field testing was conducted using an OCULUS Easyfield® perimeter. Contrast sensitivity was tested using a Pelli-Robson Contrast Sensitivity Chart (Pelli D G, Robson J, Wilkins A J. The design of a new letter chart for measuring contrast sensitivity. Clin Vision Sci. 1988; 2187-99). After one eye drop was administered to one or both eyes depending on the presence of unilateral or bilateral blepharoptosis, a second photo was obtained 30 minutes later. After 60 minutes, visual field and contrast sensitivity tests were repeated. After 120 minutes, a third and final photo was obtained.
MRD-1 is the distance in millimeters from the upper eyelid margin to the light reflex within the pupil. Measurements were made using Image J software (US National Institutes of Health, Bethesda, MD, U.S.A., http://imagej.nih.gov/ij) by a single designated, blinded investigator. The pupil diameter was also measured at all time points. Secondary effects were recorded and included subject-reported eye irritation, pain, blurry vision, light sensitivity, as well as examiner-noted eye injection, eyelid retraction, and pupil diameter. MRD-1 at the two post-administration time points constituted the primary endpoint. Secondary endpoints included visual field assessment and contrast sensitivity testing.

[2] = test system: cosmetic blepharoptosis; assay: Case study of cosmetic blepharoptosis treatment with naphazoline 0.1%; assay type: in vivo, human
Procedure: They also had brow asymmetry due to compensatory right eyebrow elevation, a separate cosmetic concern. One drop of an ophthalmic solution containing naphazoline 0.1% was administered to the right eye. After 30 minutes, the eyelid was over-elevated with an MRD-1 of 5.5 mm due to continued compensatory brow elevation of the subject's right eyebrow (FIG. 5b). […] Three hours after drop administration, the eyelid and brow symmetry were maintained (FIG. 5d).

[3] = test system: cosmetic blepharoptosis; assay: Controlled study of topical naphazoline 0.1% to improve cosmetic blepharoptosis; assay type: in vivo, human
Procedure: A comparative study was conducted to investigate the effect of an ophthalmic solution containing naphazoline 0.1% on cosmetic blepharoptosis. Two groups, the control group and treatment group each consisting of 5 subjects, were matched in terms of age and gender. The control group received one drop of normal saline while the treatment group received one drop of an ophthalmic solution containing naphazoline 0.1%. At both 30 minutes and 120 minutes after drop administration, external photographs were obtained and analyzed using Image J imaging software. MRD-1 and the distance between the upper and lower eyelid margins were measured to quantitatively assess cosmetic blepharoptosis. Secondary effects were also recorded, including conjunctival injection, eye pain or irritation, light sensitivity, and pupil size.

[4] = test system: functional blepharoptosis; assay: Randomized, controlled study of blepharoptosis treatment with tetrahydrozoline 0.1% ophthalmic solution; assay type: in vivo, human
Procedure: To evaluate the effects of an ophthalmic solution containing an α adrenergic agonist (tetrahydrozoline) on blepharoptosis, a randomized, controlled study was conducted. Participants with both unilateral or bilateral blepharoptosis were randomized to receive either the control eye drop or an ophthalmic solution containing active ingredient tetrahydrozoline 0.1%. Subjects and drop administrators were blinded to the intervention. […] The composition of the treatment group included tetrahydrozoline hydrochloride (concentration 0.1% w/v), sodium chloride, boric acid, calcium chloride, magnesium chloride, potassium chloride, sodium borate, PURITE®, methylcellulose, and purified water. The ophthalmic drops of the control group were composed of all of the preceding compounds except for tetrahydrozoline hydrochloride. Baseline external photographs of all participants were obtained before eye drop administration. After one eye drop was administered, a second photo was obtained 30 minutes later. After 90 minutes, a third and final photo was obtained. The pupil diameter in millimeters was also measured in photos at all time points. Measurements were made using Image J software by a single designated, blinded investigator. Secondary effects from the intervention were recorded including subject-reported eye irritation, pain, blurry vision, light sensitivity, as well as examiner-noted eye injection, eyelid retraction, and pupil size change from baseline.

[5] = test system: α adrenergic receptors within Müller's muscle; details: ophthalmic use for pupil dilation; background statement; cited from earlier work

- Secondary Effects (%) ([1]; proportion of subjects, one drop 0.1%, control 9.5, P 0.17): 10.5%
- difference in secondary effects, including pupil size, between the two groups ([3]; 0.1% ophthalmic solution): no difference
- Pupil Size Δ 30 minutes (mean, %) ([3]; one drop 0.1%, control 6.7, P 0.37): 10%
Structure (SMILES): c1ccc2c(CC3=NCCN3)cccc2c1 [Naphazoline, naphazoline hydrochloride]
- difference in proportion of individuals who reported minor side effects, treatment vs control group ([1]; 0.1% ophthalmic solution): not statistically significant
- visual field and contrast sensitivity improvement compared to the control group ([1]; 0.1% ophthalmic solution, 60 minutes after drop): greater
- improvement in MRD-1 compared to the control group ([1]; 0.1% ophthalmic solution, at 30 minutes and 120 minutes): statistically significant improvement
- Contrast Sensitivity Δ (mean) ([1]; Pelli-Robson chart, 60 minutes after one drop 0.1%, baseline 1.29, control 0.03, P 0.03): 0.69
- MRD1 Δ 30 minutes (mean, mm) ([1]; one drop of 0.1% w/v ophthalmic solution, 19 subjects, baseline MRD1 0.93 mm, 30 minutes after drop, control 0.02, P <0.001): 2.15 mm
- MRD1 Δ 120 minutes (mean, mm) ([1]; one drop of 0.1% w/v ophthalmic solution, 19 subjects, 120 minutes after drop, control 0.01, P 0.009): 2.08 mm
- overall effect on eyelids, visual field, contrast sensitivity and cosmetic appearance ([1]; one drop of ophthalmic composition 0.1% administered twice daily (as summarised in b67 for Example 1)): resulted in eyelid elevation, improvement of a superior visual field defect, increased contrast sensitivity, and improved cosmetic appearance of the eyes, eyelids, and eyebrows
- VF Δ (mean, % correct) ([1]; visual field, OCULUS Easyfield perimeter, 60 minutes after one drop 0.1%, baseline 33.8, control 2.1, P <0.001): 56.6 % correct
- eyelid and brow symmetry after brow relaxation ([2]; one drop 0.1%, FIG. 5c (120 minutes)): achieved both eyelid and brow symmetry
- eyelid and brow symmetry three hours after drop administration ([2]; one drop 0.1%, three hours): maintained
- MRD-1 of the right eye ([2]; subject, one drop 0.1% ophthalmic solution to the right eye, after 30 minutes, baseline 2.5 mm, eyelid over-elevated due to compensatory brow elevation): 5.5 mm
- improvement in MRD-1 and eyelid separation compared to the control group ([3]; 0.1% ophthalmic solution, 30 and 120 minutes): statistically significant improvement
- MRD1 Δ 30 minutes (mean, %) ([3]; one drop 0.1% ophthalmic solution, 5 subjects, baseline MRD1 2.4 mm, control (normal saline) 3.8, P 0.01): 42%
- MRD1 Δ 120 minutes (mean, %) ([3]; one drop 0.1% ophthalmic solution, 5 subjects, control 1.9, P 0.02): 38%
- Eyelid Margin Distance Δ 120 minutes (mean, mm) ([3]; one drop 0.1%, control 0.02, P 0.03): 1.33 mm
- Minor Side Effects (%) ([3]; one drop 0.1%, control 20, P 0.49): 20%
- Eyelid Margin Distance Δ 30 minutes (mean, mm) ([3]; one drop 0.1%, distance between upper and lower eyelid margins, control 0.03, P 0.009): 1.45 mm

- Pupil Size Δ 30 minutes (mean, %) ([4]; one drop 0.1%, control 5.8, P 0.09): 9.3%
Structure (SMILES): c1ccc2c(c1)CCCC2C1=NCCN1 (centres unmarked) [Tetrahydrozoline, tetrahydrozoline hydrochloride]
- difference in proportion of individuals who reported minor side effects, treatment vs control group ([4]; 0.1% ophthalmic solution): not statistically significant
- pupillary size change compared to the control ([4]; 0.1% ophthalmic solution): greater in the treatment group compared to the control, however, this change was not statistically significant
- blepharoptosis improvement compared to the control group ([4]; 0.1% ophthalmic solution, both time points): statistically significant at both time points
- Minor Side Effects (%) ([4]; one drop 0.1%, control 2.1, P 0.07): 6.7%
- MRD1 Δ 30 minutes (mean, mm) ([4]; one drop of 0.1% w/v ophthalmic solution, 11 subjects, baseline MRD1 0.85 mm, control 0.04, P 0.01): 2.01 mm
- MRD1 Δ 120 minutes (mean, mm) ([4]; one drop of 0.1% w/v ophthalmic solution, 11 subjects, control 0.02, P 0.009): 1.97 mm

Structure (SMILES): CNC[C@H](O)c1cccc(O)c1 [phenylephrine]
- duration of pupillary dilation and disabling light sensitivity [5]: up to seven hours
- duration of the effect of eyelid elevation [5]: less than ten minutes

From patent US20240225978A1, “METHODS AND COMPOSITIONS FOR PHARMACOLOGICAL TREATMENT OF BLEPHAROPTOSIS” (priority 2021, published 2024)
